# pIC50: −log10 of the molar value.
# Columns and labels:
# [1] = cited from earlier work
# CLL cells [2] = test: cAMP assay (RIA) in CLL cells; format: cell-based, human; conditions: two hours; used alone and combined with forskolin
# Procedure: One million cells in 1 mL were treated for two hours with or without drugs. 0.8 mL of cells were pelleted by spinning at 4,000 rpm (RCF=1,310) in microcentrifuge tube. After discarding 0.7 mL, 400 uL of ethanol was added, vortexed and left on ice for five minutes. Particulate cell debris was removed by centrifugation at 14,000 rpm (RCF=16,000). The supernatant was stored at −20° C. until the day of assay, at which time it was dried in a Speedivac (Savant, Farmingdale, N.Y.) to a volume of 50 uL. After ten-fold dilution in 10 mMol/L Tris pH 8.0, 1 mMol/L EDTA, the cAMP sample was analyzed for cAMP concentration using a cAMP RIA kit (NEN, Boston, Mass.) according to the manufacturer's instructions using the nonacetylated protocol.
# In this example, it was determined what role type 1 and type 4 PDE activity might play in the catabolism of cyclic nucleotides in CLL cells. cAMP levels were measured after culturing leukemic cells with varying concentrations of PDE-isoform specific inhibitors, either alone or in conjunction with an activator of adenylate cyclase, the diterpene forskolin. Specifically, one million freshly isolated cells were incubated with the indicated drugs for two hours prior to analysis of cAMP in cell lysates using a radioimmunoassay. The results are shown in FIG. 4 and the data are the mean of three individually assayed culture wells.
# Type 4 enzymes = conditions: cited from earlier work
# [3] = test system: PDE activity in CLL cells; test: cAMP PDE assay on CLL cell lysates; format: biochemical, human; conditions: 10 uMol/L
# Excerpt: The technique of Robiesek et al., itself adapted from an assay described by Thompson and Appleman, was used in modified form. S. A. Robicsek et al., “Multiple high-affinity cAMP-phosphodiesterases in human T-lymphocytes,” Biochem. Pharmacol. 42:869 (1991). W. J. Thompson and M. M. Appleman, “Multiple cyclic nucleotide phosphodiesterase activities from rat brain,” Biochemistry 10:311 […]. 150 million purified CLL cells were pelleted and sonicated (Branson 350 Sonifier with micropit probe, output =2, 50% duty cycle) on ice in 1.0 mL of a buffer which contained 20 mMol/L Tris (pH 6.8), 1 mMol/L EDTA, aprotinin (50 u/mL), pepstatin (1 mg/mL), PMSF (1 mMol/L) and 3.75 mMol/L b-ME. Assay buffer contained 100 mMol/L Tris (pH 8.0), 20 mMol/l MgCl2, 0.2% BSA and 7.5 mMol/L b-ME. [^3H]-cAMP (NEN, Boston, Mass.) was incubated with PDE for 10 minutes at 30° C. in 20 uL volumes (10 uL of sonication buffer and 10 uL of assay buffer) which contained 0.22 units of alkaline phosphatase. 10 uMol/L rolipram or 0.2 mMol/L calcium/20 nMol/L calmodulin were added to the assay buffer as appropriate. Reactions were halted by the addition of 0.5 mL of a 1:3 slurry w/v slurry of AG1-X8 anion exchange resin and a mixture of equal volumes of water and isopropanol. […] The radiolabelled nucleosides in the supernatant were counted using Ecoscint scintillation fluid (National Diagnostics, Atlanta, Ga.). […]
# CLL cells [4] = test: Hoechst 33342 apoptosis assay, CLL cells; format: cell-based, human; conditions: for percentage of apoptotic cells: 10 uMol/L rolipram
# Procedure: Hoechst 33342 was dissolved in water and frozen at 33 mg/mL at −20° C. One million cells/well were incubated in duplicate or triplicate in 48 well tissue culture plates (Costar, Cambridge, Mass.) with or without drug treatment for […] in 1 mL of culture media. Cells were transferred to 12×75 mm polystyrene Falcon® 2054 FACS tubes (Becton Dickinson Labware, Lincoln Park, N.J.) and incubated for ten minutes at 37° C. with Hoechst 33342 at a final concentration of […]. 23 Cells were stored on ice until analysis on a FACS Vantage flow cytometer (Becton Dickinson, San Jose, Calif.). Hoechst 33342 dye fluorescence was excited with a UV laser and detected using a 450 bandpass filter; Data was analyzed using Cellquest software (Becton Dickinson, San Jose, Calif.).
# As a more quantitative analysis of CLL apoptosis, we utilized a flow cytometry method in which apoptotic cells are distinguished both by their reduced size (FSC) and their increased uptake of the lipophilic UV fluorescent dye Hoechst 33342 (FL-4) when the intact, heterogeneous cell population is incubated with a low concentration of the dye (0.25 ug/mL) for 10 minutes at 37° C. Specifically, cells were cultured for 72 hours in media (1), 1uMol/L rolipram (2), 40 uMol/L forskolin (3) or a combination of the two drugs (FIG. 6). The abcissa reflects forward light scatter and the ordinate Hoechst 33342 fluorescence. Apoptotic cells are characterized by reduced forward light scatter and increased Hoechst 33342 fluorescence. Previous reports of cAMP induced lymphoid apoptosis have noted that this form of programmed cell death may take 48 to 72 hours to develop maximally. […] CLL cells were cultured for 72 hours in one mL of media with the indicated concentration of rolipram with (black bars) or without (stippled bars) the addition of 40 uMol/L forskolin.
smiles,measurement,setting,value
"COc1ccc(C2CNC(=O)C2)cc1OC1CCCC1 (racemic) [rolipram, 4-(3-cyclopentyloxy-4-methoxyphenyl)-2-pyrrolidone]",emesis,"[1]; humans, higher dosages",emetogenic
same,tolerability,[1]; studied as an antidepressant in humans,well tolerated
same,CLL cAMP levels,CLL cells [2],augmented CLL cAMP levels
same,pIC50,Type 4 enzymes,6.00
same,PDE activity in CLL cells,[3],inhibited
same,absolute increase in apoptotic cells,"CLL cells [4]; 10 uMol/L, four relatively rolipram-resistant patient samples (Pt #'s 11-14)",less than 33%
same,CLL cell apoptosis,"CLL cells [4]; 72 hour culture, rolipram dose range with or without 40 uMol/L forskolin",dose dependent increase in CLL cell apoptosis
same,apoptosis of anti-Ig stimulated CLL cells,CLL cells [4]; CLL cells derived from two patients,failed to protect these cells from rolipram-induced apoptosis
same,percentage of apoptotic cells,"CLL cells [4]; Pt. 1, Rai III, basal 47, 40 uMol/L forskolin or 100 uMol/L dbcAMP, three days",80%
same,percentage of apoptotic cells,"CLL cells [4]; Pt. 2, Rai IV, Drug Res. Ch, Cy, basal 18 ± 2, 40 uMol/L forskolin or 100 uMol/L dbcAMP, three days",79%
same,percentage of apoptotic cells,"CLL cells [4]; Pt. 3, Rai IV, Drug Res. Ch, CH, basal 38, 40 uMol/L forskolin or 100 uMol/L dbcAMP, three days",77 ± 1%
same,percentage of apoptotic cells,"CLL cells [4]; Pt. 4, Rai I, basal 31 ± 2, 40 uMol/L forskolin or 100 uMol/L dbcAMP, three days",76 ± 2%
same,percentage of apoptotic cells,"CLL cells [4]; Pt. 5, Rai IV, basal 18, 40 uMol/L forskolin or 100 uMol/L dbcAMP, three days",57 ± 2%
same,percentage of apoptotic cells,"CLL cells [4]; Pt. 6, Rai IV, Drug Res. Ch, basal 17 ± 4, 40 uMol/L forskolin or 100 uMol/L dbcAMP, three days",54 ± 1%
same,percentage of apoptotic cells,"CLL cells [4]; Pt. 7, Rai II, Drug Res. Ch, basal 13 ± 2, 40 uMol/L forskolin or 100 uMol/L dbcAMP, three days",47 ± 2%
same,percentage of apoptotic cells,"CLL cells [4]; Pt. 8, Rai 0, basal 5, 40 uMol/L forskolin, three days",46%
same,percentage of apoptotic cells,"CLL cells [4]; Pt. 9, Rai IV, Drug Res. Ch, Cy, Fl, basal 4 ± 0, 40 uMol/L forskolin or 100 uMol/L dbcAMP, three days",44 ± 3%
same,percentage of apoptotic cells,"CLL cells [4]; Pt. 10, Rai I, basal 11, 40 uMol/L forskolin or 100 uMol/L dbcAMP, three days",44 ± 0%
same,percentage of apoptotic cells,"CLL cells [4]; Pt. 11, Rai 0, basal 24 ± 4, 40 uMol/L forskolin or 100 uMol/L dbcAMP, three days",40 ± 0%
same,percentage of apoptotic cells,"CLL cells [4]; Pt. 12, Rai IV, Drug Res. Ch, Fl, 2C, basal 0 ± 4, 40 uMol/L forskolin or 100 uMol/L dbcAMP, three days",38 ± 1%
same,percentage of apoptotic cells,"CLL cells [4]; Pt. 13, Rai 0, basal 2 ± 0, 40 uMol/L forskolin or 100 uMol/L dbcAMP, three days",34 ± 0%
same,percentage of apoptotic cells,"CLL cells [4]; Pt. 14 (significant population of cells with prolymphocyte morphology), Rai I, basal 13 ± 0, 40 uMol/L forskolin or 100 uMol/L dbcAMP, three days",14 ± 0%
same,effect on doxorubicin-induced apoptosis,"CLL cells [4]; rolipram 10 uMol/L, doxorubicin 0.03 or 0.1 uMol/L, three days",augments doxorubicin-induced apoptosis
same,effect on fludarabine-induced apoptosis,"CLL cells [4]; rolipram 10 uMol/L, fludarabine 0.3-3.0 uMol/L, three days",augments fludarabine-induced apoptosis
same,effect on chlorambucil-induced apoptosis,"CLL cells [4]; rolipram 10 uMol/L, three days",augments chlorambucil-induced apoptosis

# Source: patent US6399649B1, “Compositions and methods for the treatment of chronic lymphocytic leukemia” (Boston Medical Center Corporation, priority 1998, dated 2002)
